Data: patent US10774052B2, “Heteroaryl compounds and uses thereof” (Celgene CAR LLC, priority 2013, dated 2020)

System: pFGFR4 in MDA-MB-453 cells
Experiment: FGFR4 signaling, pFGFR4 (MDA); Western blot (Method A), MSD (Method B), ELISA (Method C)
Assay type: cell-based
Description: The MDA-MB-453 protein concentrations were determined by a BCA Assay (Pierce, Rockford, Ill.). A sample of 50-100 μg of each lysate was separated by a 4-12% gradient (SDS-PAGE (Invitrogen)), transferred to a nitrocellulose membrane (Biorad, Hercules, Calif.), and probed with specific antibodies. Phospho-protein signals were quantitated using Odyssey Infrared Imaging (Li-Cor Biosciences).
To assess phospho-FGFR signaling, the blots were probed with anti-Phospho-FGFR (Y653/Y654) and total anti-FGFR antibodies. The phospho-FGFR signal was normalized to total FGFR expression for each sample.

[1] = Homo sapiens, MDA-MB-453 cells, Method B (MSD) for signaling EC50 determination
[2] = Homo sapiens, MDA-MB-453, MDA-MB-453 cells, Method B (MSD) for signaling EC50 determination
[3] = Homo sapiens, MDA-MB-453 cells, Method C (ELISA) for signaling EC50 determination
[4] = Homo sapiens, MDA-MB-453 cells, Method A (Western blot) for signaling EC50 determination

| Structure (SMILES) | EC50 [1] | further results |
| --- | --- | --- |
| C=CCN1C(=O)N(c2cc(OC)cc(OC)c2)Cc2cnc(Nc3ccccc3NC(=O)C=C)nc21 [Compound I-32] | < 100 nM | – |
| C=CC(=O)N[C@H]1CCCC[C@H]1Nc1ncc2c(n1)N(Cc1nccs1)C(=O)N(c1c(Cl)c(OC)cc(OC)c1Cl)C2 [Compound I-92] | – | EC50 [2]: 101 to 500 nM |
| C=CC(=O)NC1CCCCC1Nc1ncc2c(n1)N(Cc1cccnc1)C(=O)N(c1c(Cl)c(OC)cc(OC)c1Cl)C2 (racemic) [Compound I-35] | 101 to 500 nM | – |
| C=CC(=O)Nc1ccccc1Nc1ncc2nc(-c3cc(OC)cc(OC)c3)c(=O)n(C)c2n1 [Compound I-128] | – | EC50 [2]: > 1000 nM |
| C=CC(=O)Nc1ccccc1Oc1ncc2c(n1)N(C)C(=O)N(c1c(Cl)c(OC)cc(OC)c1Cl)C2 [Compound I-65] | – | EC50 [2]: 101 to 500 nM |
| C=CC(=O)N[C@H]1CCCC[C@H]1Nc1ncc2c(n1)N(Cc1ccn(C)n1)C(=O)N(c1c(Cl)c(OC)cc(OC)c1Cl)C2 [Compound I-147] | < 100 nM | – |
| C=CC(=O)Nc1ccccc1Nc1ncc2c(n1)N(CC1CC1)C(=O)N(c1cc(OC)cc(OC)c1F)C2 [Compound I-109] | < 100 nM | – |
| C=CC(=O)Nc1ccccc1Nc1ncc2c(n1)N(Cc1ccccc1)C(=O)N(c1c(Cl)c(OC)cc(OC)c1Cl)C2 [Compound I-3] | – | EC50 [3]: < 100 nM |
| C=CC(=O)Nc1ccccc1Nc1ncc2c(n1)N(CC1CC1)C(=O)N(c1c(Cl)c(OC)cc(OC)c1Cl)C2 [Compound I-130] | < 100 nM | – |
| C=CC(=O)Nc1ccccc1Nc1ncc2c(n1)N(CC(F)F)C(=O)N(c1c(Cl)c(OC)cc(OC)c1Cl)C2 [Compound I-103] | < 100 nM | – |
| C=CC(=O)Nc1cc(C(=O)NC2CCN(C)CC2)ccc1Nc1ncc2c(n1)N(C)C(=O)N(c1c(Cl)c(OC)cc(OC)c1Cl)C2 [Compound I-150] | < 100 nM | – |
| C=CC(=O)Nc1ccccc1Nc1ncc2c(n1)N(CC)C(=O)N(CC)C2 [Compound I-120] | – | EC50 [2]: > 1000 nM |
| C=CC(=O)Nc1ccccc1Nc1ncc2c(n1)N(C)C(=O)N(c1c(Cl)c(OC)cc(OC)c1Cl)C2 [Compound I-2] | – | EC50 [4]: < 100 nM |
| C=CC(=O)NC1CCCCC1Nc1ncc2c(n1)N(C1CCCNC1)C(=O)N(c1cc(OC)cc(OC)c1)C2 (racemic) [Compound I-46] | – | EC50 [2]: > 1000 nM |
| C=CC(=O)Nc1ccccc1Nc1ncc2c(n1)N(CC1CCN(C(=O)OC(C)(C)C)CC1)C(=O)N(c1cc(OC)cc(OC)c1)C2 [Compound I-60] | 101 to 500 nM | – |
| C=CS(=O)(=O)Nc1ccccc1Nc1ncc2c(n1)N(C)C(=O)N(c1cc(OC)cc(OC)c1)C2 [Compound I-67] | < 100 nM | – |
| C=CC(=O)Nc1ccccc1Nc1ncc2c(n1)N(Cc1nccs1)C(=O)N(c1c(Cl)c(OC)cc(OC)c1Cl)C2 [Compound I-91] | – | EC50 [2]: < 100 nM |
| C=CC(=O)N[C@H]1CCCC[C@H]1Nc1ncc2c(n1)N(Cc1cn[nH]c1)C(=O)N(c1c(Cl)c(OC)cc(OC)c1Cl)C2 [Compound I-152] | < 100 nM | – |
| C=CC(=O)NC1CCCCC1Nc1ncc2c(n1)N(CC1CC1)C(=O)N(c1c(Cl)c(OC)cc(OC)c1Cl)C2 (racemic) [Compound I-129] | 101 to 500 nM | – |
| C=CC(=O)Nc1ccccc1CNc1ncc2c(n1)N(Cc1cccc(NC(=O)CC)c1)C(=O)N(c1c(Cl)c(OC)cc(OC)c1Cl)C2 [Compound I-180] | – | EC50 [3]: < 100 nM |

| Structure (SMILES) | EC50 [1] | further results |
| --- | --- | --- |
| C=CC(=O)Nc1cc(C(F)(F)F)ccc1Nc1ncc2c(n1)N(Cc1ccccc1)C(=O)N(c1c(Cl)c(OC)cc(OC)c1Cl)C2 [Compound I-10] | – | EC50 (MDA-MB-453 cells, Method B (MSD) for signaling EC50 determination): > 1000 nM |
| C=CC(=O)Nc1ccccc1Nc1ncc2c(n1)N(CC1CCNCC1)C(=O)N(c1cc(OC)cc(OC)c1)C2 [Compound I-40] | > 1000 nM | – |
| C=CC(=O)Nc1cc(N2CCOCC2)ccc1Nc1ncc2c(n1)N(C)C(=O)N(c1cc(OC)cc(OC)c1)C2 [Compound I-17] | < 100 nM | – |
| C=CC(=O)NC1CCCC1Nc1ncc2c(n1)N(C)C(=O)N(c1c(Cl)c(OC)cc(OC)c1Cl)C2 (racemic) [Compound I-112] | 101 to 500 nM | – |
| C=CCCN1C(=O)N(c2cc(OC)cc(OC)c2)Cc2cnc(Nc3ccccc3NC(=O)C=C)nc21 [Compound I-57] | < 100 nM | – |
| C=CC(=O)Nc1ccccc1Nc1ncc2c(n1)N(Cc1cccc(C#N)c1)C(=O)N(c1cc(OC)cc(OC)c1)C2 [Compound I-90] | 101 to 500 nM | – |
| C=CC(=O)Nc1ccc(N2CCN(CC)CC2)cc1Nc1ncc2c(n1)N(C)C(=O)N(c1cc(OC)cc(OC)c1)C2 [Compound I-30] | 101 to 500 nM | – |
| C=CC(=O)NCc1ccccc1Nc1ncc2c(n1)N(C)C(=O)N(c1c(Cl)c(OC)cc(OC)c1Cl)C2 [Compound I-181] | < 100 nM | – |
| C=CC(=O)Nc1ccccc1Nc1ncc2c(n1)N(Cc1cccc(F)c1)C(=O)N(c1c(Cl)c(OC)cc(OC)c1Cl)C2 [Compound I-12] | – | EC50 [2]: < 100 nM |
| C=CC(=O)NC1CCCCC1Nc1ncc2c(n1)NC(=O)N(c1c(Cl)c(OC)cc(OC)c1Cl)C2 (racemic) [Compound I-73] | 101 to 500 nM | – |
| C=C(C)C(=O)Nc1ccccc1Nc1ncc2c(n1)N(C)C(=O)N(c1c(Cl)c(OC)cc(OC)c1Cl)C2 [Compound I-142] | 101 to 500 nM | – |
| C=CC(=O)Nc1ccccc1Nc1ncc2c(n1)N(C1CC1)C(=O)N(c1c(Cl)c(OC)cc(OC)c1Cl)C2 [Compound I-23] | < 100 nM | – |
| C=CC(=O)Nc1ccc(-c2nccs2)cc1Nc1ncc2c(n1)N(C)C(=O)N(c1cc(OC)cc(OC)c1)C2 [Compound I-78] | 101 to 500 nM | – |
| C=CC(=O)Nc1cc(-c2nccs2)ccc1Nc1ncc2c(n1)N(C)C(=O)N(c1cc(OC)cc(OC)c1)C2 [Compound I-84] | – | EC50 [2]: 101 to 500 nM |
| C=CC(=O)Nc1cc(C2=CCN(CC)CC2)ccc1Nc1ncc2c(n1)N(C)C(=O)N(c1cc(OC)cc(OC)c1)C2 [Compound I-56] | < 100 nM | – |
| C=CC(=O)Nc1ccc(-c2cnn(C)c2)cc1Nc1ncc2c(n1)N(C)C(=O)N(c1c(Cl)c(OC)cc(OC)c1Cl)C2 [Compound I-74] | < 100 nM | – |
| C=CC(=O)Nc1cc(N2CCN(CC)CC2)ccc1Nc1ncc2c(n1)N(C)C(=O)N(c1cc(OC)cc(OC)c1)C2 [Compound I-15] | < 100 nM | – |
| C=CC(=O)NC1CCCCC1Nc1ncc2c(n1)N(CC1CC1)C(=O)N(c1cc(OC)cc(OC)c1Cl)C2 (stereo not drawn) [Compound I-101] | – | EC50 [2]: 101 to 500 nM |
| C=CC(=O)NC1CCCCC1Nc1ncc2c(n1)N(Cc1cccc(NS(C)(=O)=O)c1)C(=O)N(c1c(Cl)c(OC)cc(OC)c1Cl)C2 (racemic) [Compound I-89] | 101 to 500 nM | – |
| C=CC(=O)Nc1ccccc1Nc1ncc2c(n1)N(CCC(O)CO)C(=O)N(c1cc(OC)cc(OC)c1)C2 (stereo not drawn) [Compound I-58] | 101 to 500 nM | – |

| Structure (SMILES) | EC50 [1] | further results |
| --- | --- | --- |
| C=CC(=O)NCc1ccccc1Nc1ncc2c(n1)N(Cc1cccc(NC(=O)CC)c1)C(=O)N(c1c(Cl)c(OC)cc(OC)c1Cl)C2 [Compound I-179] | – | EC50 [4]: < 100 nM |
| C=CC(=O)NC1CCCCC1Nc1ncc2c(n1)N(C)C(=O)N(c1cc(OC)cc(OC)c1)C2 (racemic) [Compound I-18] | – | EC50 [2]: > 1000 nM |
| C=CC(=O)N[C@@H]1CCCC[C@@H]1Nc1ncc2c(n1)N(Cc1nccs1)C(=O)N(c1c(Cl)c(OC)cc(OC)c1Cl)C2 [Compound I-93] | – | EC50 [2]: > 1000 nM |
| C=CC(=O)Nc1cc(-c2nnn(C)n2)ccc1Nc1ncc2c(n1)N(C)C(=O)N(c1c(Cl)c(OC)cc(OC)c1Cl)C2 [Compound I-145] | < 100 nM | – |
| C=CC(=O)Nc1ccccc1Nc1ncc2c(n1)N(Cc1ccn(C)n1)C(=O)N(c1c(Cl)c(OC)cc(OC)c1Cl)C2 [Compound I-136] | < 100 nM | – |
| C=CC(=O)Nc1ccccc1Nc1ncc2c(n1)N(Cc1cscn1)C(=O)N(c1c(Cl)c(OC)cc(OC)c1Cl)C2 [Compound I-86] | < 100 nM | – |
| C=CC(=O)NC1CCCCC1Nc1ncc2c(n1)N(C1CCCN(C(=O)OC(C)(C)C)C1)C(=O)N(c1cc(OC)cc(OC)c1)C2 (racemic) [Compound I-45] | – | EC50 [2]: > 1000 nM |
| C=CC(=O)Nc1ccc(Nc2ncc3c(n2)N(Cc2cccc(NC(=O)CC)c2)C(=O)N(c2c(Cl)c(OC)cc(OC)c2Cl)C3)cc1 [Compound I-233] | – | EC50 [4]: < 100 nM |
| C=CC(=O)Nc1ccccc1Nc1ncc2c(n1)N(C1CC1)C(=O)N(c1cc(OC)cc(OC)c1)C2 [Compound I-34] | < 100 nM | – |
| C=CC(=O)Nc1cc(N2CCN(C(=O)CCC(=O)O)CC2)ccc1Nc1ncc2c(n1)N(C)C(=O)N(c1c(Cl)c(OC)cc(OC)c1Cl)C2 [Compound I-123] | < 100 nM | – |
| C=CC(=O)Nc1ccccc1Nc1ncc2c(n1)N(Cc1ccnc(N)c1)C(=O)N(c1c(Cl)c(OC)cc(OC)c1Cl)C2 [Compound I-135] | < 100 nM | – |
| C=CC(=O)Nc1cc(CN2CCN(CC)CC2)ccc1Nc1ncc2c(n1)N(C)C(=O)N(c1cc(OC)cc(OC)c1)C2 [Compound I-122] | – | EC50 [2]: 101 to 500 nM |
| C=CC(=O)Nc1cc(-c2cnn(C)c2)ccc1Nc1ncc2c(n1)N(C)C(=O)N(c1cc(OC)cc(OC)c1)C2 [Compound I-77] | < 100 nM | – |
| C=CC(=O)Nc1ccccc1Nc1ncc2c(n1)N(C)C(=O)N(C1CCCCC1)C2 [Compound I-52] | > 1000 nM | – |
| C=CC(=O)Nc1cc(N2CCN(CCOC)CC2)ccc1Nc1ncc2c(n1)N(C)C(=O)N(c1cc(OC)cc(OC)c1)C2 [Compound I-20] | < 100 nM | – |
| C=CC(=O)Nc1cc(-c2cnn(C)c2)ccc1Nc1ncc2c(n1)N(C)C(=O)N(c1c(Cl)c(OC)cc(OC)c1Cl)C2 [Compound I-141] | < 100 nM | – |
| COc1cc(OC)cc(N2Cc3cnc(Nc4ccccc4)nc3N(C)C2=O)c1 [Compound I-237] | – | EC50 [2]: 101 to 500 nM |
| C=CC(=O)Nc1cc(Cl)c(Cl)cc1Nc1ncc2c(n1)N(Cc1ccccc1)C(=O)N(c1c(Cl)c(OC)cc(OC)c1Cl)C2 [Compound I-11] | > 1000 nM | – |
| C=CC(=O)Nc1ccc(C)cc1Nc1ncc2c(n1)N(C)C(=O)N(c1cc(OC)cc(OC)c1)C2 [Compound I-49] | 501 to 999 nM | – |
| C=CC(=O)NC1CCCCC1Nc1ncc2c(n1)N(C1CCC1)C(=O)N(c1c(Cl)c(OC)cc(OC)c1Cl)C2 (racemic) [Compound I-70] | 101 to 500 nM | – |
